Laboratory results from patent US20260167623A1 (NIKANG THERAPEUTICS, INC., priority 2022, published 2026).

Columns and labels:
CDK2 [1] = molecular target: T1, CDK2 (Homo sapiens, UniProt P24941); experiment: High-throughput HTRF measurement of cellular endogenous CDK2 level (degradation, DC50/Dmax) in OVCAR3 cells, 6 h; format: cell-based; details: 6 h compound treatment, HTRF total CDK2, read-out: DC50_OVCAR3_6h
T1 construct: High-Throughput Measurement of Cellular Endogenous CDK2; endogenous in cells; host or cells: OVCAR3
Procedure, shortened: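 DC50 and Dmax were derived by four-parameter logistic fit of the […] TR-FRET ratio, scaled between DMSO (0% degradation) and lysis buffer (100%) controls. The ratio came from an HTRF total-CDK2 sandwich immunoassay on lysates of OVCAR3 cells given 0.03–1,000 nM compound for 6 hours.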

CDK2 [2] = molecular target: T1, CDK2; experiment: Inhibition of CDK2: phospho-Rb (S807/811) HTRF measurement in OVCAR3 cells, 24 h; format: cell-based; details: 24 h compound treatment, read-out: pRB_OVCAR3_24h
Procedure, shortened: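 IC50 came from a four-parameter fit of DMSO-normalized TR-FRET ratios (665/620 nm) reporting phospho-Rb S807/811. Lysates were taken from OVCAR3 cultures treated 24 h with compound (0.3 to 10,000 nM) and incubated 4 h at room temperature with the antibody pair.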

SMILES | DC50 (CDK2 [1]) [nM] | IC50 (CDK2 [2]) [nM]
O=C1CCC(N2Cc3cc(C4CCN(CC5CCN(c6cccc(S(=O)(=O)N7CCC(Nc8ncc(C(F)(F)F)cn8)CC7)c6)CC5)CC4)c(F)cc3C2=O)C(=O)N1 (centres unmarked) [Example 119, 3-(6-fluoro-1-oxo-5-(1-((1-(3-((4-((5-(trifluoromethyl)pyrimidin-2-yl)amino)-piperidin-1-yl)sulfonyl)phenyl)piperidin-4-yl)methyl)piperidin-4-yl)isoindolin-2-yl)piperidine-2,6-dione] | 1 to 10 | 1 to 100
Cn1c(S(=O)(=O)N2CCC(Nc3ncc(C(F)(F)F)cn3)CC2)cnc1CN1CCC(c2ccc3c(N4CCC(=O)NC4=O)nn(C)c3c2)CC1 [Example 47, 1-(1-methyl-6-(1-((1-methyl-5-((4-((5-(trifluoromethyl)pyrimidin-2-yl)amino)-piperidin-1-yl)sulfonyl)-1H-imidazol-2-yl)methyl)piperidin-4-yl)-1H-indazol-3-yl)dihydropyrimidine-2,4(1H,3H)-dione] | 10 to 100 | 1 to 100
Cn1nc(N2CCC(=O)NC2=O)c2ccc(C3CCN(CCCc4cccc(S(=O)(=O)N5CCC(Nc6ncc(OC(F)F)cn6)CC5)c4)CC3)cc21 [Example 86, 1-(6-(1-(3-(3-((4-((5-(difluoromethoxy)-pyrimidin-2-yl)amino)piperidin-1-yl)sulfonyl)phenyl)propyl)piperidin-4-yl)-1-methyl-1H-indazol-3-yl)dihydropyrimidine-2,4(1H,3H)-dione] | 10 to 100 | 1 to 100
Cn1nc(N2CCC(=O)NC2=O)c2ccc(C3CCN(CC4CCN(c5cccc(S(=O)(=O)N6CCC(Nc7ncc(Cl)cn7)CC6)c5)CC4)CC3)c(Cl)c21 [Example 71, 1-(7-chloro-6-(1-((1-(3-((4-((5-chloro-pyrimidin-2-yl)amino)piperidin-1-yl)sulfonyl)phenyl)piperidin-4-yl)methyl)-piperidin-4-yl)-1-methyl-1H-indazol-3-yl)dihydropyrimidine-2,4(1H,3H)-dione] | 1 to 10 | 1 to 100
Cn1nc(N2CCC(=O)NC2=O)c2ccc(C3CCN(CC4CCN(c5cc(S(=O)(=O)N6CCC(Nc7ncc(Cl)cn7)CC6)ccc5C#N)CC4)CC3)cc21 [Example 148, 4-((4-((5-chloropyrimidin-2-yl)amino)piperidin-1-yl)sulfonyl)-2-(4-((4-(3-(2,4-dioxotetrahydropyrimidin-1(2H)-yl)-1-methyl-1H-indazol-6-yl)piperidin-1-yl)methyl)piperidin-1-yl)benzonitrile] | 10 to 100 | 1 to 100
Cn1nc(N2CCC(=O)NC2=O)c2ccc(C3CCN(CC4CCN(c5cccc(S(=O)(=O)N6CCC(Nc7ncc(C(F)(F)F)cn7)CC6)c5)CC4)CC3)cc21 [Example 40, 1-(1-methyl-6-(1-((1-(3-((4-((5-(trifluoro-methyl)pyrimidin-2-yl)amino)piperidin-1-yl)sulfonyl)phenyl)piperidin-4-yl)methyl)piperidin-4-yl)-1H-indazol-3-yl)dihydropyrimidine-2,4(1H,3H)-dione] | 1 to 10 | 1 to 100
O=C1CCC(N2Cc3cc(N4CCN(Cc5cccc(S(=O)(=O)N6CCC(Nc7ncc(OC(F)F)cn7)CC6)c5)CC4)c(F)cc3C2=O)C(=O)N1 (centres unmarked) [Example 43, 3-(5-(4-(3-((4-((5-(difluoromethoxy)-pyrimidin-2-yl)amino)piperidin-1-yl)sulfonyl)benzyl)piperazin-1-yl)-6-fluoro-1-oxoisoindolin-2-yl)piperidine-2,6-dione] | 10 to 100 | 100 to 500
Cn1nc(N2CCC(=O)NC2=O)c2ccc(C3CCN(Cc4cccc(S(=O)(=O)N5CCC(Nc6ncc(OC(F)F)cn6)CC5)c4)CC3)cc21 [Example 35, 1-(6-(1-(3-((4-((5-(difluoromethoxy)-pyrimidin-2-yl)amino)piperidin-1-yl)sulfonyl)benzyl)piperidin-4-yl)-1-methyl-1H-indazol-3-yl)dihydropyrimidine-2,4(1H,3H)-dione] | 10 to 100 | 1 to 100
Cn1nc(N2CCC(=O)NC2=O)c2ccc(C3CCN(CC(C)(C)Cc4cccc(S(=O)(=O)N5CCC(Nc6ncc(C(F)(F)F)cn6)CC5)c4)CC3)cc21 [Example 55, 1-(6-(1-(2,2-dimethyl-3-(3-((4-((5-(trifluoro-methyl)pyrimidin-2-yl)amino)piperidin-1-yl)sulfonyl)phenyl)propyl)piperidin-4-yl)-1-methyl-1H-indazol-3-yl)dihydropyrimidine-2,4(1H,3H)-dione] | 10 to 100 | 1 to 100
Cn1nc(N2CCC(=O)NC2=O)c2ccc(C3CCN(CCCc4cccc(S(=O)(=O)N5CCC(Nc6ncc(C(F)(F)F)cn6)CC5)c4)CC3)cc21 [Example 87, 1-(1-methyl-6-(1-(3-(3-((4-((5-(trifluoro-methyl)pyrimidin-2-yl)amino)piperidin-1-yl)sulfonyl)phenyl)propyl)piperidin-4-yl)-1H-indazol-3-yl)dihydropyrimidine-2,4(1H,3H)-dione] | 1 to 10 | 1 to 100
Cn1nc(N2CCC(=O)NC2=O)c2ccc(C3CCN(Cc4cccc(S(=O)(=O)N5CCC(Nc6ncc(Br)cn6)CC5)c4)CC3)cc21 [Example 24, 1-(6-(1-(3-((4-((5-bromopyrimidin-2-yl)amino)piperidin-1-yl)sulfonyl)benzyl)-piperidin-4-yl)-1-methyl-1H-indazol-3-yl)dihydropyrimidine-2,4(1H,3H)-dione] | 1 to 10 | 100 to 500
C=Cc1cnc(NC2CCN(S(=O)(=O)c3cccc(CN4CCC(c5ccc6c(N7CCC(=O)NC7=O)nn(C)c6c5)CC4)c3)CC2)nc1 [Example 58, 1-(1-methyl-6-(1-(3-((4-((5-vinylpyrimidin-2-yl)amino)piperidin-1-yl)sulfonyl)benzyl)-piperidin-4-yl)-1H-indazol-3-yl)dihydropyrimidine-2,4(1H,3H)-dione] | 1 to 10 | 100 to 500

Further lines, results first:

DC50 (CDK2 [1]) [nM] | IC50 (CDK2 [2]) [nM] | SMILES
1 to 10 | 1 to 100 | Cn1c(=O)n(C2CCC(=O)NC2=O)c2ccc(C3CCN(CC4CCN(c5cc(S(=O)(=O)N6CCC(Nc7ncc(Cl)cn7)CC6)ccc5C#N)CC4)CC3)cc21 (centres unmarked) [Example 204, 4-((4-((5-chloropyrimidin-2-yl)amino)piperidin-1-yl)sulfonyl)-2-(4-((4-(1-(2,6-dioxopiperidin-3-yl)-3-methyl-2-oxo-2,3-dihydro-1H-benzo[d]imidazol-5-yl)piperidin-1-yl)methyl)piperidin-1-yl)benzonitrile]
1000 to 5000 | 1 to 100 | Cn1nc(-n2ccc(=O)[nH]c2=O)c2ccc(C3CCN(CC4CCN(c5cccc(S(=O)(=O)N6CCC(Nc7ncc(C(F)(F)F)cn7)CC6)c5)CC4)CC3)cc21 [Example 211, 1-(1-methyl-6-(1-((1-(3-((4-((5-(trifluoromethyl)pyrimidin-2-yl)amino)piperidin-1-yl)sulfonyl)phenyl)piperidin-4-yl)methyl)piperidin-4-yl)-1H-indazol-3-yl)pyrimidine-2,4(1H,3H)-dione]
1 to 10 | 1 to 100 | Cn1c(=O)n(C2CCC(=O)NC2=O)c2cccc(C3CCN(CC4CCN(c5cc(S(=O)(=O)N6CCC(Nc7ncc(C(F)(F)F)cn7)CC6)ccc5C#N)CC4)CC3)c21 (centres unmarked) [Example 181, 2-(4-((4-(1-(2,6-dioxopiperidin-3-yl)-3-methyl-2-oxo-2,3-dihydro-1H-benzo[d]imidazol-4-yl)piperidin-1-yl)methyl)piperidin-1-yl)-4-((4-((5-(trifluoromethyl)pyrimidin-2-yl)amino)piperidin-1-yl)sulfonyl)benzonitrile]
10 to 100 | 1 to 100 | Cn1nc(N2CCC(=O)NC2=O)c2ccc(C3CCN(CC4CCN(c5cc(S(=O)(=O)N6CCC(Nc7ncc(C(F)(F)F)cn7)CC6)ccc5C#N)CC4)CC3)c(F)c21 [Example 188, 2-(4-((4-(3-(2,4-dioxotetrahydropyrimidin-1(2H)-yl)-7-fluoro-1-methyl-1H-indazol-6-yl)piperidin-1-yl)methyl)piperidin-1-yl)-4-((4-((5-(trifluoromethyl)pyrimidin-2-yl)amino)piperidin-1-yl)sulfonyl)benzonitrile]
10 to 100 | 1 to 100 | Cn1c(=O)n(C2CCC(=O)NC2=O)c2ccc(F)c(C3CCN(CC4CCN(c5cc(S(=O)(=O)N6CCC(Nc7ncc(Cl)cn7)CC6)ccc5C#N)CC4)CC3)c21 (centres unmarked) [Example 216, 4-((4-((5-chloropyrimidin-2-yl)amino)piperidin-1-yl)sulfonyl)-2-(4-((4-(1-(2,6-dioxopiperidin-3-yl)-5-fluoro-3-methyl-2-oxo-2,3-dihydro-1H-benzo[d]imidazol-4-yl)piperidin-1-yl)methyl)piperidin-1-yl)benzonitrile]
1 to 10 | 1 to 100 | N#Cc1ccc(S(=O)(=O)N2CCC(Nc3ncc(C(F)(F)F)cn3)CC2)cc1N1CCC(CN2CCC(c3cccc4c3oc(=O)n4C3CCC(=O)NC3=O)CC2)CC1 (centres unmarked) [Example 198, 2-(4-((4-(3-(2,6-dioxopiperidin-3-yl)-2-oxo-2,3-dihydrobenzo[d]oxazol-7-yl)piperidin-1-yl)methyl)piperidin-1-yl)-4-((4-((5-(trifluoromethyl)pyrimidin-2-yl)amino)piperidin-1-yl)sulfonyl)benzonitrile]
10 to 100 | 1 to 100 | O=C1CCC(N2Cc3cc(N4CCC(CN5CCN(c6cccc(S(=O)(=O)N7CCC(Nc8ncc(Cl)cn8)CC7)c6)CC5)CC4)ccc3C2=O)C(=O)N1 (centres unmarked) [Example 247, 3-(5-(4-((4-(3-((4-((5-chloropyrimidin-2-yl)amino)piperidin-1-yl)sulfonyl)phenyl)piperazin-1-yl)methyl)piperidin-1-yl)-1-oxoisoindolin-2-yl)piperidine-2,6-dione]
